Test results published in the supplement of paper PMC12463676, “Small-molecule dissolution of stress granules by redox modulation benefits ALS models” (Nature Chemical Biology, 2025).

compound: NC(=O)CCCCC1CCSS1 [lipoamide]; assay: thermal stability z-score vs DMSO; higher = more thermally stabilized by treatment; conditions: HeLa; lipoamide concentration 100 µM; arsenate co-treatment: none
Experimental: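 Cellular thermal proteome profiling in HeLa cells. Cells were treated with 100 µM lipoamide for 1 h, with or without 1 mM arsenate for a further 1 h, then heated to ten temperatures (37-66.3 °C), and soluble protein was quantified by TMT mass spectrometry relative to 0.1% DMSO controls. The thermal stability score (sum of log2 fold changes minus the abundance score) was transformed to a z-score; mean of n = 3 experiments.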
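Further: each temperature applied for 3 min, abundance score taken as mean log2 fold change at the two lowest temperatures, z-score obtained by mean subtraction and division by SD.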

Sequence of UniProt Q6PJG2 (Q6PJG2 whole entry): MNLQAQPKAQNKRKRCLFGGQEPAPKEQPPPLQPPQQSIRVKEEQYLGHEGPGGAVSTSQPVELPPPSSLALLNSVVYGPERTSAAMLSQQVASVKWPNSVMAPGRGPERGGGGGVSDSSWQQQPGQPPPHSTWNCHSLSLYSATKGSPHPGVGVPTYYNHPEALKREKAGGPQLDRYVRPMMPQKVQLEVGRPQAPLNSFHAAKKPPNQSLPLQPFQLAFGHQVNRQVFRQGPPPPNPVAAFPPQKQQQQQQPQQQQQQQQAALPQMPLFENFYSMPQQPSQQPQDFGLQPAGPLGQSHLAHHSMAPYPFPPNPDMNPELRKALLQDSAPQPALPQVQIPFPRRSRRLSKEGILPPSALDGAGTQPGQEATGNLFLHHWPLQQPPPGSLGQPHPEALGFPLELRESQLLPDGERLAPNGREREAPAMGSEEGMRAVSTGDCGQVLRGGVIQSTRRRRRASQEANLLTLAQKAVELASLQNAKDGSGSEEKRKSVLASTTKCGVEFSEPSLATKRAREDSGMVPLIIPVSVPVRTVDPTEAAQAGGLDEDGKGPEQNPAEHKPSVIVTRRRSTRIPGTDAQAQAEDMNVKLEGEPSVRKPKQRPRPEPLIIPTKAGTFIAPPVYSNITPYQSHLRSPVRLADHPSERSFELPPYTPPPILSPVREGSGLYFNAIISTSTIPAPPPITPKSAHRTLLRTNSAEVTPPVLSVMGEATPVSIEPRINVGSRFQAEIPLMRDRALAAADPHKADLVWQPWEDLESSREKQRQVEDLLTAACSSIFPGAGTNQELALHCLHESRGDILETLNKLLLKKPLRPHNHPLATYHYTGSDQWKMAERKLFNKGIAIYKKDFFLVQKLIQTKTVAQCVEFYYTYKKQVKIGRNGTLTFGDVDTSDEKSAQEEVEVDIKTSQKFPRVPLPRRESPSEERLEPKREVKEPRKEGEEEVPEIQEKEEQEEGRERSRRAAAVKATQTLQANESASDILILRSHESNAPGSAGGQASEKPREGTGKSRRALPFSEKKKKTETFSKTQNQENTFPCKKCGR
Sequence of UniProt O43805 (O43805 whole entry): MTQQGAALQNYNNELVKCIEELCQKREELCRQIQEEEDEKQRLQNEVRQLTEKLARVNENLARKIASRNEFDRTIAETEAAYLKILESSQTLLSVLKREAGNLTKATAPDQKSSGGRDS
Sequence of UniProt Q969Z0 (Q969Z0 whole entry): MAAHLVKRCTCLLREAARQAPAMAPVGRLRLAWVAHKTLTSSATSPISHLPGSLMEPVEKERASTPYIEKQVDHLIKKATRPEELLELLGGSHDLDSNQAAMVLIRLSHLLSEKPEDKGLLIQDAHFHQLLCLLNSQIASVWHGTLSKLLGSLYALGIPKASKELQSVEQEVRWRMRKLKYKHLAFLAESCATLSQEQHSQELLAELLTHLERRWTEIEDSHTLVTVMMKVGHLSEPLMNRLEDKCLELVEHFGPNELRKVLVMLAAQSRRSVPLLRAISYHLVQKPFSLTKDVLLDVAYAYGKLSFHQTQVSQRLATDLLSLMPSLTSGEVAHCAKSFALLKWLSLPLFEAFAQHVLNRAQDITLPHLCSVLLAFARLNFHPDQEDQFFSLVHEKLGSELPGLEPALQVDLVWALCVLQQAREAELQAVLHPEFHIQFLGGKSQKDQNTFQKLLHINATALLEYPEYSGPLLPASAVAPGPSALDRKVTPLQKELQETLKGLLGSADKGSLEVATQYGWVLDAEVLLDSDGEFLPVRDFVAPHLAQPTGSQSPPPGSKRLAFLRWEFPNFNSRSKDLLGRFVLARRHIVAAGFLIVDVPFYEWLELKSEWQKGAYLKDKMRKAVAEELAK
Sequence of UniProt Q9HCK8 (Q9HCK8 whole entry): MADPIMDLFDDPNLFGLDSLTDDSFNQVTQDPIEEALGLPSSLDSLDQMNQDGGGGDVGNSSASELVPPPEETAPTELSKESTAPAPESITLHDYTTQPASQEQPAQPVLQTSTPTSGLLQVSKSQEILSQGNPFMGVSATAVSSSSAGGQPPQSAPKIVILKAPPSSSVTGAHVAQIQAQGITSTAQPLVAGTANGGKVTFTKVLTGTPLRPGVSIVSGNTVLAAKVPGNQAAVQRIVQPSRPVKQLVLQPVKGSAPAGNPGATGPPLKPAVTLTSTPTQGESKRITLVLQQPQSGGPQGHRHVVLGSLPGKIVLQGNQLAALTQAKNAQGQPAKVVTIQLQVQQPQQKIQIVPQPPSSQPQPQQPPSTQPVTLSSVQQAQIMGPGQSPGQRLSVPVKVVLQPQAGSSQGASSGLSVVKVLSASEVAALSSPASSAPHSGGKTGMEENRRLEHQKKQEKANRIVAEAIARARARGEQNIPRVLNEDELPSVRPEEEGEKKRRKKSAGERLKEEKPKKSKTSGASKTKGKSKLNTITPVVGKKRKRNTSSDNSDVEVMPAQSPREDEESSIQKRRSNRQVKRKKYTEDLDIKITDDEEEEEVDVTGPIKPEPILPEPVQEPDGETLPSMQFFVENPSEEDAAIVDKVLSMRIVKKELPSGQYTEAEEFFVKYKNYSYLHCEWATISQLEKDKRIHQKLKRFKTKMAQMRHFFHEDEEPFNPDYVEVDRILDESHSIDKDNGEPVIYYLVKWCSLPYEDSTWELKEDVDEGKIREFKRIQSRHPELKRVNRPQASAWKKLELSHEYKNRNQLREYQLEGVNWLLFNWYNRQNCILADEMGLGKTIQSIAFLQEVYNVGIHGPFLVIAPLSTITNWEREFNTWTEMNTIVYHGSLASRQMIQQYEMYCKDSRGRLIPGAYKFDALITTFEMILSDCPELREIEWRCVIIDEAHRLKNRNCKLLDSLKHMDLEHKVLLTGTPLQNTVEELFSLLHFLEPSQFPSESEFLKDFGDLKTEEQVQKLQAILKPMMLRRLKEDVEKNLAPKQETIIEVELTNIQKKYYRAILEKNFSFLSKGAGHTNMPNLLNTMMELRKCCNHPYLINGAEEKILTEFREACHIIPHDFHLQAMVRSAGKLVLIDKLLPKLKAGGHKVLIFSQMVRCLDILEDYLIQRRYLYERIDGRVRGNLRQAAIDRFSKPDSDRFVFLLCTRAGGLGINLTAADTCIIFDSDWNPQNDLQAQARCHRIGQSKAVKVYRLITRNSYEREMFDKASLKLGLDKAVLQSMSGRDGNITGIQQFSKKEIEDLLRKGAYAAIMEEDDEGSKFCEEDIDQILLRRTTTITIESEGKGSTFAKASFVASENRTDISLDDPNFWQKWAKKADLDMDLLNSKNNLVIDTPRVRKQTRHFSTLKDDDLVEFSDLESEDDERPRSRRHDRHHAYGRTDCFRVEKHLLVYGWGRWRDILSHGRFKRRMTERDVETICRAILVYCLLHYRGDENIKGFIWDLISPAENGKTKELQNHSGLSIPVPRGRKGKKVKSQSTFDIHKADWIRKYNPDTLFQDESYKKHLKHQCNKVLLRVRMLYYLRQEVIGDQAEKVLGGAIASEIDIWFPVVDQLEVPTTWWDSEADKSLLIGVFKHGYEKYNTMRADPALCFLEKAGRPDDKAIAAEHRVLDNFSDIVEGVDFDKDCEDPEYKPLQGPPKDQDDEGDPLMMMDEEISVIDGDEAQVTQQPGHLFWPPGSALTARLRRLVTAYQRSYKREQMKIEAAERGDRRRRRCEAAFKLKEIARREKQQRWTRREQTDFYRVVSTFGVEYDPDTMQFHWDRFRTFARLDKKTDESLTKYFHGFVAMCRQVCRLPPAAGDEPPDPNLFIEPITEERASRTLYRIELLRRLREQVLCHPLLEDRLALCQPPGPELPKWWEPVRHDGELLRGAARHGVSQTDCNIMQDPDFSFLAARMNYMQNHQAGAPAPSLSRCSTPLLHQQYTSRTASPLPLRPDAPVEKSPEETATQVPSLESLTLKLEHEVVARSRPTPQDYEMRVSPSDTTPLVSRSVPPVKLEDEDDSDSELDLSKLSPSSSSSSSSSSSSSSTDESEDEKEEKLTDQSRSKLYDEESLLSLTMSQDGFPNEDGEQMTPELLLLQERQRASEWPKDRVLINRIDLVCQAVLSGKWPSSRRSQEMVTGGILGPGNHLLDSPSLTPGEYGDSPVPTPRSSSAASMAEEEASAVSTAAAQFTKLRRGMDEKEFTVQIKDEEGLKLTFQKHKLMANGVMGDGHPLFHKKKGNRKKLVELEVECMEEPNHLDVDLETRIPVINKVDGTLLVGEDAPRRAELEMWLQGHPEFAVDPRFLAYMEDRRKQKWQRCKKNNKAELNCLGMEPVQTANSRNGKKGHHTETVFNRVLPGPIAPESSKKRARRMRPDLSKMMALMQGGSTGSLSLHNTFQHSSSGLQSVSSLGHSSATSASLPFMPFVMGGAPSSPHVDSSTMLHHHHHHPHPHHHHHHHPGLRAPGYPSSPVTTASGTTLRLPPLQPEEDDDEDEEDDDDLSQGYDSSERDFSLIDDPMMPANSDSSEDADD
Sequence of UniProt Q9H3H1 (Q9H3H1 whole entry): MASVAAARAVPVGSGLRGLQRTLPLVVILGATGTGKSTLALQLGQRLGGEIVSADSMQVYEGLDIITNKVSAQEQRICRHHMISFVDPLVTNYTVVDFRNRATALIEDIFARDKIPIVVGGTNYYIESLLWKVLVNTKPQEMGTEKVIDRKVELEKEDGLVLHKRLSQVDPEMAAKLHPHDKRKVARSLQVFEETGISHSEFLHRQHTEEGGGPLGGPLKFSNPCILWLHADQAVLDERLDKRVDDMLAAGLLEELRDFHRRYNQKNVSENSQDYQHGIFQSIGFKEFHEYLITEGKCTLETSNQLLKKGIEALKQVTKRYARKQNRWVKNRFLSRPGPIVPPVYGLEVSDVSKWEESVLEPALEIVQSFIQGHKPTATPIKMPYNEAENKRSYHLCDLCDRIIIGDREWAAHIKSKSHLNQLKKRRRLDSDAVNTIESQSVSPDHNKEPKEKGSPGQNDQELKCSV
Sequence of UniProt Q13907 (Q13907 whole entry): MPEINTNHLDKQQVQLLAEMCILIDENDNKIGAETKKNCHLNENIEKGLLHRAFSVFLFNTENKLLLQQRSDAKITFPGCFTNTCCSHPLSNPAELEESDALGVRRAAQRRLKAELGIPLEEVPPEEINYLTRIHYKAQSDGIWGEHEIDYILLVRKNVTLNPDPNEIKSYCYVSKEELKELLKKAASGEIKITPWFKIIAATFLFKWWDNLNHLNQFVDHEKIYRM

| Target | thermal stability z-score |
| --- | --- |
| HERC1 (UniProt Q15751) | -0.54 |
| TRIT1 (UniProt Q9H3H1) | -0.0898 |
| AMD1 (UniProt P17707) | 0.512 |
| ELMSAN1 (UniProt Q6PJG2) | 0.0593 |
| MANEAL (UniProt Q5VSG8) | 0.109 |
| SSNA1 (UniProt O43805) | 1.39 |
| CHD8 (UniProt Q9HCK8) | -0.00227 |
| GOLM1 (UniProt Q8NBJ4) | -0.136 |
| SREBF1 (UniProt P36956) | 0.0707 |
| RIPK1 (UniProt Q13546) | -1.03 |
| TBRG4 (UniProt Q969Z0) | -0.116 |
| DIP2A (UniProt Q14689) | -0.0406 |
| SMIM12 (UniProt Q96EX1) | 0.35 |
| PDIA6 (UniProt Q15084) | -1.84 |
| LMNB1 (UniProt P20700) | -0.38 |
| ANTXR1 (UniProt Q9H6X2) | -0.146 |
| RPS20 (UniProt P60866) | 1.14 |
| IDI1 (UniProt Q13907) | 0.458 |
| NSUN2 (UniProt Q08J23) | -0.353 |
| UQCRC1 (UniProt P31930) | 0.508 |
| FMNL1 (UniProt O95466) | -0.507 |
| RAB1B (UniProt Q9H0U4) | 0.549 |
| CAMK2G (UniProt Q13555) | -0.174 |
| TMCO1 (UniProt Q9UM00) | 0.305 |
| GSPT1 (UniProt P15170) | 0.472 |
| NNMT (UniProt P40261) | 1.62 |
| SEC16A (UniProt O15027) | 1.39 |
| GDPD1 (UniProt Q8N9F7) | -0.624 |

compound: O=[As]([O-])(O)O.[K+] [potassium arsenate]; assay: as above; conditions: HeLa; arsenate concentration 1 mM
Experimental: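 Cellular thermal proteome profiling in HeLa cells treated with 1 mM arsenate for 1 h (DMSO pretreatment), heated to ten temperatures (37-66.3 °C). Soluble protein was quantified by TMT mass spectrometry relative to DMSO controls; the thermal stability score was transformed to a z-score; mean of n = 3 experiments.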

| Target | thermal stability z-score |
| --- | --- |
| VAMP8 (UniProt Q9BV40) | 0.587 |
| DAZAP1 (UniProt Q96EP5) | 0.243 |
| RBM39 (UniProt Q14498) | -0.546 |
| EIF3D (UniProt O15371) | -0.0622 |
| SFXN1 (UniProt Q9H9B4) | 0.0559 |
| LGALSL (UniProt Q3ZCW2) | 0.19 |
| MED20 (UniProt Q9H944) | -0.226 |
| BRD4 (UniProt O60885) | -0.724 |
| LENG9 (UniProt Q96B70) | -0.307 |
| RHOT2 (UniProt Q8IXI1) | -0.176 |
| MTMR2 (UniProt Q13614) | -0.555 |
| BICD1 (UniProt Q96G01) | -1.74 |
| GTF3C1 (UniProt Q12789) | -0.534 |
| C15ORF40 (UniProt Q8WUR7) | -1.19 |
| SCPEP1 (UniProt Q9HB40) | -0.196 |
| SEC23IP (UniProt Q9Y6Y8) | 1.54 |
| MAP4 (UniProt P27816) | -0.384 |
| ACSF2 (UniProt Q96CM8) | -0.301 |
| SCYL3 (UniProt Q8IZE3) | -0.314 |
| FUS (UniProt P35637) | 0.635 |
| GRHPR (UniProt Q9UBQ7) | 1.22 |
| UBL5 (UniProt Q9BZL1) | -0.107 |
| ATP13A3 (UniProt Q9H7F0) | 0.165 |
| BCLAF1 (UniProt Q9NYF8) | -1.11 |
| TARBP2 (UniProt Q15633) | -0.00318 |
| NAV1 (UniProt Q8NEY1) | 0.073 |
| HS1BP3 (UniProt Q53T59) | -0.105 |
| HERC1 (UniProt Q15751) | -0.0795 |

| Target | thermal stability z-score |
| --- | --- |
| TRIT1 (UniProt Q9H3H1) | 0.0151 |
| AMD1 (UniProt P17707) | -0.105 |
| ELMSAN1 (UniProt Q6PJG2) | -0.16 |
| MANEAL (UniProt Q5VSG8) | 0.736 |
| SSNA1 (UniProt O43805) | 1.34 |
| CHD8 (UniProt Q9HCK8) | 0.147 |
| GOLM1 (UniProt Q8NBJ4) | -0.568 |
| SREBF1 (UniProt P36956) | 0.119 |
| RIPK1 (UniProt Q13546) | 0.39 |
| TBRG4 (UniProt Q969Z0) | 0.462 |
| DIP2A (UniProt Q14689) | -0.205 |
| SMIM12 (UniProt Q96EX1) | 0.0454 |
| PDIA6 (UniProt Q15084) | 0.475 |
| LMNB1 (UniProt P20700) | 0.742 |
| ANTXR1 (UniProt Q9H6X2) | 0.283 |
| RPS20 (UniProt P60866) | -0.0402 |
| IDI1 (UniProt Q13907) | 0.042 |
| NSUN2 (UniProt Q08J23) | -0.192 |
| UQCRC1 (UniProt P31930) | -1.38 |
| FMNL1 (UniProt O95466) | -0.153 |
| RAB1B (UniProt Q9H0U4) | 0.196 |
| CAMK2G (UniProt Q13555) | 0.174 |
| TMCO1 (UniProt Q9UM00) | -0.687 |
| GSPT1 (UniProt P15170) | 0.226 |
| NNMT (UniProt P40261) | 0.0978 |
| SEC16A (UniProt O15027) | 0.285 |
| GDPD1 (UniProt Q8N9F7) | -1.05 |
